Key:
[1] = system: HEK293 cells; assay: PCR validation of LMI070-induced novel exons with primers binding the flanking exons; format: cell-based, Human; details: top 5 candidate genes; cDNA from HEK293 cells treated with LMI070 vs DMSO
Experimental: RNA extraction, RT-PCR, and Splicing assays. Total RNA was extracted using Trizol (Life Technologies) according to the manufacturer’s protocol, with the exception of 1 µL Glycoblue (Life Technologies) in addition to the aqueous phase on the isopropanol precipitation step and a single wash with cold 70% ethanol. To determine HTT expression levels after transfection, RNA samples were quantified by spectrophotometry and subsequently cDNAs generated from […] of total RNA with random hexamers (TaqMan RT reagents, Applied Biosystems). […] Relative HTT gene expression was determined using the ddCt method. […] Splicing was determined by PCR using the Phusion High-Fidelity polymerase (Thermofisher) and PCR products separated on a 2.5% agarose gel pre-stained with EtBr and spliced-in and spliced-out band densitometry performed using with the ChemiDoc Imaging System (BioRad) and Image Lab analysis software. Splicing induction from mouse tissues was determined using two custom TaqMan assays designed to determine total or LMI070-spliced in mRNA transcripts. The percentage of induction was determined by dividing the average Ct novel exon and average Ct Total, relative to control animals injected with AAV virus plus vehicle. […]

[2] = system: Ai14 reporter genomic locus; assay: In vivo AAVPHPeB SF3B3.Xon SaCas9 editing of Ai14 reporter locus in brain; details: Ai14 mice, tdTomato expression
Excerpt: To assess the applicability of Xon for brain targeted therapies, the SF3B3.Xon was packaged into AAVPHPeB vector to control the expression of SaCas9 protein and delivered to transgenic Ai14 reporter mice and BacHD mice (FIGS. 9A, 9C).

[3] = system: Ai14 reporter genomic locus; assay: In vivo AAV8.Xon.SaCas9 editing of Ai14 reporter locus in liver; details: Ai14 mice, PCR and tdTomato expression
Excerpt: To assess the applicability of Xon for liver targeted therapies, AAV8.Xon.Epo and AAV8.Xon.SaCas9 vectors were generated and delivered to C57Bl6 and Ai14 reporter mice, respectively (FIGS. 7A, 7C, 7F).

[4] = system: HEK293 cells; assay: RNA-Seq of HEK293 cells treated with LMI070 for LMI070-induced splicing events; format: cell-based, Human; details: HEK293, 25 nM LMI070 for 12 hours
Experimental: Tables 1A-1E provide the genomic locations of candidate LMI070-induced exons and the frequency of events from RNA-Seq datasets. Summarized here are the differentially expressed candidate LMI070-induced splicing positions as identified by RNA-Seq of HEK293 cells treated with either DMSO or LMI070 (25 nM). All candidates shown were manually selected from a bioinformatically generated list of top hits based on their suitability for construction of an exon switching genomic minigene, their exclusivity to the LMI070 condition, and their minimal to undetectable levels in DMSO treated cells. The top 25 rows of each table indicate hits observed exclusively upon LMI070 exposure. The following 22 rows of each table indicate candidates where splicing was enriched but not totally exclusive to LMI070 treatment.
Table 1A provides the GRCh38 genomic positions used to create the splice event-containing genomic minigene, the GRCh38 genomic positions of the pseudoexon created by LMI070-induced splicing, the number of exon-exon junction spanning reads observed with DMSO treatment, and the number of exon-exon junctions spanning reads observed with LMI070 treatment. […]
RNA-Seq Methods. […] Splice junction output by STAR were quantified using a custom R script designed to identify splicing events unique to LMI070 treatment. Top ranking LMI070-exclusive splice events were manually assessed for their applicability to function as a splicing switch. […] Candidate splice events were visually evaluated using the Sashimi plot function available in IGV (Thorvaldsdottir et al., 2013; Katz et al., 2015).
Next, exons that were more sensitive to LMI070 to reduce non-target splice events were sought out. […] Reads obtained from 4 control and 4 LMI070 treated samples were aligned to the genome using the STAR aligner (Dobin & Gingeras, 2015) and splicing events exclusive to the LMI070 treated samples identified (FIGS. 2A and 2F-2N; Table 1). […]

Compound: CC1(C)CC(Oc2ccc(-c3ccc(-c4cn[nH]c4)cc3O)nn2)CC(C)(C)N1 [LMI070, 5-(1H-Pyrazol-4-yl)-2-(6-((2,2,6,6-tetramethylpiperidin-4-yl)oxy)pyridazin-3-yl)phenol]
- amplification of the novel exons by PCR [1]: Robust amplification
- editing of the Ai14 reporter genomic locus (brain) [2]: only observed on mice treated with LMI070
- editing of the Ai14 reporter genomic locus (liver) [3]: only observed on mice injected with AAV8.Xon.SaCas9 virus and treated with LMI070
- events evident in all treated and in one of the control untreated samples [4]: 22
- events found exclusively and in all LMI070 treated samples [4]: 23
- novel splicing events identified following LMI070 treatment ([4]; threshold average greater than 5 novel intron splicing events): 45
